For the experiment, the target named is T1, IRAK4 (Homo sapiens, UniProt Q9NWZ3).
T1 construct: Degradation of IRAK4 in OCI-LY10 was quantitatively measured using Meso Scale Discovery technology; endogenous in cells; host or cells: OCI-LY10
T1 sequence (Q9NWZ3 1-460): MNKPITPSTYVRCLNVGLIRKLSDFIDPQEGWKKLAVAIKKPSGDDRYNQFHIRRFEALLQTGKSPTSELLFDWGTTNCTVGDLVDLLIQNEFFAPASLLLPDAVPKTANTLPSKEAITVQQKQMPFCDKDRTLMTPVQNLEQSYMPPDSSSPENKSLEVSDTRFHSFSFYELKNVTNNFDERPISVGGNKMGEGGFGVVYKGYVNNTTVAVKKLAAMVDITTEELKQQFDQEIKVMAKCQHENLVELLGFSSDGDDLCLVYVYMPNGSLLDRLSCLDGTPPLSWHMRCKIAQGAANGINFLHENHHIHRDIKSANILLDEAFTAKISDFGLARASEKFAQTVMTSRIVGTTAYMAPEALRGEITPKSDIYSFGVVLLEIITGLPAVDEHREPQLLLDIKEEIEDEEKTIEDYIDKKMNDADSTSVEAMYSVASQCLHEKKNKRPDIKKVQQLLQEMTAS
The experiment can be described thus: IRAK4 MSD Degradation in OCI-LY10. The settings on record: OCI-LY10 cells, MSD. In kind it is cell-based. The procedure, abridged: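 OCI-LY10 cells exposed to 8-point 1:3 compound series (top 1 to 10 μM) for 4 to 24 h at 37 °C, 5% CO2. Lysate IRAK4 quantified by MSD sandwich immunoassay. DC50 from three-parameter logistic fit, binned A (<0.01 μM) to D (>0.2 μM or not tested).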

Setting [1] is: 4 hrs incubation, read-out: IRAK4 degradation in OCI-LY10 at 4 hrs: DC50.
[2] abbreviates: 24 hrs incubation, read-out: IRAK4 degradation in OCI-LY10 at 24 hrs: DC50.

Read-outs that look alike come from different tables or passages of the source. Some results are limits rather than exact numbers.

For `Cn1c(=O)n(C2CCC(=O)NC2=O)c2cccc(C#CCN3CC4(C3)N(C[C@H]3CC[C@H](n5cc(NC(=O)c6cnn7ccc(N8CCCC8)nc67)c(C(F)F)n5)CC3)CC4(F)F)c21` (stereo partly drawn) [I-501], the DC50 was greater than 200 nM under setting [1] and greater than 200 nM under setting [2].
As to `CN(C[C@H]1CC[C@H](n2cc(NC(=O)c3cnn4ccc(N5C[C@H]6C[C@@H]5CO6)nc34)c(C(F)F)n2)CC1)C1CCN(c2cccc3c2n(C)c(=O)n3C2CCC(=O)NC2=O)CC1(F)F` (stereo partly drawn) [I-502], the DC50 by setting is: under setting [1], greater than 200 nM; under setting [2], greater than 200 nM.
For the compound `CN(CC[C@H]1CC[C@H](n2cc(NC(=O)c3cnn4cccnc34)c(C(F)F)n2)CC1)C1CCN(c2cccc3c2n(C)c(=O)n3C2CCC(=O)NC2=O)CC1(F)F` (stereo partly drawn) [I-503], the half-maximal degradation concentration (DC50) by setting is: under setting [1], greater than 200 nM; under setting [2], greater than 200 nM.
As for `CN(C[C@H]1CC[C@H](n2cc(NC(=O)c3cnn4ccc(N5CCC5)nc34)c(C(F)F)n2)CC1)C1CCN(c2cccc3c2n(C)c(=O)n3C2CCC(=O)NC2=O)CC1(F)F` (stereo partly drawn) [I-504], the DC50 is greater than 200 nM under setting [1] and greater than 200 nM under setting [2].
Turning to `CN(C[C@H]1CC[C@H](n2cc(NC(=O)c3cnn4ccc(N5CC(C)(C)C5)nc34)c(C(F)F)n2)CC1)C1CCN(c2cccc3c2n(C)c(=O)n3C2CCC(=O)NC2=O)CC1(F)F` (stereo partly drawn) [I-505], the DC50 is greater than 200 nM under setting [1] and greater than 200 nM under setting [2].
As to `CN(C[C@H]1CC[C@H](n2cc(NC(=O)c3cnn4ccc(N5CC6(CC6)C5)nc34)c(C(F)F)n2)CC1)C1CCN(c2cccc3c2n(C)c(=O)n3C2CCC(=O)NC2=O)CC1(F)F` (stereo partly drawn) [I-506], the DC50 by setting is: under setting [1], greater than 200 nM; under setting [2], greater than 200 nM.
On to `CN(C[C@H]1CC[C@H](n2cc(NC(=O)c3cnn4ccc(N5CC(F)(F)C5)nc34)c(C(F)F)n2)CC1)C1CCN(c2cccc3c2n(C)c(=O)n3C2CCC(=O)NC2=O)CC1(F)F` (stereo partly drawn) [I-507], for which the DC50 runs as follows: under setting [1], greater than 200 nM; under setting [2], greater than 200 nM.
On to `CN(C[C@H]1CC[C@H](n2cc(NC(=O)c3cnn4ccc(N5CC(O)C5)nc34)c(C(F)F)n2)CC1)C1CCN(c2cccc3c2n(C)c(=O)n3C2CCC(=O)NC2=O)CC1(F)F` (stereo partly drawn) [I-508], for which the DC50 was greater than 200 nM under setting [1] and greater than 200 nM under setting [2].
In the case of `CN(C[C@H]1CC[C@H](n2cc(NC(=O)c3cnn4ccc(N5CC6(COC6)C5)nc34)c(C(F)F)n2)CC1)C1CCN(c2cccc3c2n(C)c(=O)n3C2CCC(=O)NC2=O)CC1(F)F` (stereo partly drawn) [I-509], the DC50 by setting is: under setting [1], greater than 200 nM; under setting [2], 10 to 100 nM.
Taken in the same sequence, the figures for `CN(C[C@H]1CC[C@H](n2cc(NC(=O)c3cnn4ccc(N5CC6(CCCOC6)C5)nc34)c(C(F)F)n2)CC1)C1CCN(c2cccc3c2n(C)c(=O)n3C2CCC(=O)NC2=O)CC1(F)F` (stereo partly drawn) [I-510] were greater than 200 nM and 10 to 100 nM.
In the same order, the values of `CN(C[C@H]1CC[C@H](n2cc(NC(=O)c3cnn4ccc(N5CC6(CCOCC6)C5)nc34)c(C(F)F)n2)CC1)C1CCN(c2cccc3c2n(C)c(=O)n3C2CCC(=O)NC2=O)CC1(F)F` (stereo partly drawn) [I-511] are greater than 200 nM and 10 to 100 nM.
Taken in the same sequence, the figures for `CN(C[C@H]1CC[C@H](n2cc(NC(=O)c3cnn4ccc(N5CCCC5)nc34)c(C(F)F)n2)CC1)C1CCN(c2cccc3c2n(C)c(=O)n3C2CCC(=O)NC2=O)CC1(F)F` (stereo partly drawn) [I-512] were greater than 200 nM and 10 to 100 nM.
As for `CN(C[C@H]1CC[C@H](n2cc(NC(=O)c3cnn4ccc(N5CCCC5(C)C)nc34)c(C(F)F)n2)CC1)C1CCN(c2cccc3c2n(C)c(=O)n3C2CCC(=O)NC2=O)CC1(F)F` (stereo partly drawn) [I-513], the DC50 is, setting by setting: under setting [1], greater than 200 nM; under setting [2], greater than 200 nM.
With `CN(C[C@H]1CC[C@H](n2cc(NC(=O)c3cnn4ccc(N5CCCC56CC6)nc34)c(C(F)F)n2)CC1)C1CCN(c2cccc3c2n(C)c(=O)n3C2CCC(=O)NC2=O)CC1(F)F` (stereo partly drawn) [I-514], the DC50 is greater than 200 nM under setting [1] and greater than 200 nM under setting [2].
As for `CN(C[C@H]1CC[C@H](n2cc(NC(=O)c3cnn4ccc(N5CCCCC5)nc34)c(C(F)F)n2)CC1)C1CCN(c2cccc3c2n(C)c(=O)n3C2CCC(=O)NC2=O)CC1(F)F` (stereo partly drawn) [I-515], the DC50 was greater than 200 nM under setting [1] and 10 to 100 nM under setting [2].

What is called DC50 is the concentration giving 50% degradation.

(Values after patent US12091411B2, “IRAK degraders and uses thereof” (Kymera Therapeutics, Inc., priority 2022, dated 2024).)
